According to PubChem BioAssay (NCI):
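48-hour exposure; five concentrations; linearly interpolated endpoints. Definition used: TGI = concentration required for complete inhibition of growth.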

Experiments:
Test in all cases: inhibition of tumour cell growth, NCI panel, 48 h
[1] = system: SK-OV-3 ovarian
[2] = system: NCI-H522 lung
[3] = system: SK-MEL-5 melanoma
[4] = system: SN12C renal
[5] = system: SW-620 colon
[6] = system: K-562 leukemia
[7] = system: U251 CNS
[8] = system: HCT-116 colon
[9] = system: SF-295 CNS
[10] = system: HOP-92 NSCLC
[11] = system: MALME-3M melanoma
[12] = system: MDA-N
[13] = system: M14 melanoma
[14] = system: SNB-75 CNS
[15] = system: MDA-MB-231 breast
[16] = system: EKVX NSCLC
[17] = system: SK-MEL-2 melanoma
[18] = system: T-47D breast
[19] = system: HCC-2998 colon
[20] = system: 786-0 renal
[21] = system: SR leukemia
[22] = system: NCI-H23 lung
[23] = system: LOX IMVI melanoma
[24] = system: UO-31 renal
[25] = system: IGROV1 ovarian
[26] = system: NCI/ADR-RES ovarian
[27] = system: MCF7 breast
[28] = system: SNB-19 CNS
[29] = system: HS 578T breast
[30] = system: SF-268 CNS
[31] = system: HCT-15 colon
[32] = system: OVCAR-4 ovarian
[33] = system: RPMI-8226 leukemia
[34] = system: OVCAR-5 ovarian
[35] = system: UACC-62 melanoma
[36] = system: UACC-257 melanoma
[37] = system: A498 renal
[38] = system: COLO 205 colon
[39] = system: CAKI-1 renal
[40] = system: SK-MEL-28 melanoma
[41] = system: OVCAR-3 ovarian
[42] = system: DU-145 prostate
[43] = system: RXF 393 renal
[44] = system: BT-549 breast
[45] = system: A549 NSCLC
[46] = system: KM12 colon
[47] = system: NCI-H460 lung
[48] = system: HOP-62 NSCLC
[49] = system: MDA-MB-435
[50] = system: TK-10 renal
[51] = system: ACHN renal
[52] = system: PC-3 prostate
[53] = system: OVCAR-8 ovarian
[54] = system: CCRF-CEM leukemia
[55] = system: SF-539 CNS
[56] = system: NCI-H226 lung
[57] = system: HT29 colon
[58] = system: HL-60(TB) leukemia
[59] = system: MOLT-4 leukemia

Measured: TGI

O=C(O)Cc1ccc2nc(COC(=O)c3ccccc3)sc2c1
> 100 µM: [1] | [2] | [3] | [4] | [5] | [6] | [7] | [8] | [9] | [10] | [11] | [12] | [13] | [14] | [15] | [16] | [17] | [18] | [19] | [20] | [21] | [22] | [23] | [24] | [25] | [26] | [27] | [28] | [29] | [30] | [31] | [32] | [33] | [34] | [35] | [36] | [37] | [38] | [39] | [40] | [41] | [42] | [43] | [44] | [45] | [46] | [47] | [48] | [49] | [50] | [51] | [52] | [53]

Cc1nc2cc(C(F)(F)F)ccc2[nH]c1=O
> 100 µM: [1] | [3] | [4] | [5] | [6] | [7] | [8] | [9] | [10] | [54] | [11] | [12] | [13] | [14] | [15] | [16] | [17] | [18] | [19] | [20] | [22] | [23] | [24] | [26] | [27] | [28] | [29] | [30] | [31] | [32] | [33] | [34] | [35] | [36] | [37] | [38] | [39] | [55] | [40] | [41] | [56] | [57] | [42] | [58] | [43] | [59] | [44] | [45] | [46] | [47] | [48] | [49] | [50] | [51] | [52] | [53]

CN1C(=O)CN(NC(=O)C2=C(O)c3ccc(Br)cc3S(=O)(=O)N2)C1=S
51.1 µM: [54]
> 100 µM: [1] | [2] | [3] | [4] | [5] | [6] | [7] | [8] | [9] | [10] | [11] | [12] | [13] | [15] | [16] | [17] | [18] | [19] | [20] | [21] | [22] | [23] | [24] | [25] | [26] | [27] | [28] | [29] | [30] | [31] | [32] | [33] | [34] | [35] | [36] | [37] | [38] | [39] | [40] | [56] | [57] | [42] | [58] | [43] | [59] | [44] | [45] | [46] | [47] | [48] | [49] | [50] | [51] | [52] | [53]

Cc1cc(C)c2c(n1)S(=O)(=O)N(CCCN1CCN(c3cccc(C(F)(F)F)c3)CC1)/C(=C(\O)c1ccc(Cl)cc1)C2=O
37.1 µM: [48]
8.61 µM: [56]
11.9 µM: [8] | [50]
16.8 µM: [17]
10.7 µM: [16]
14.6 µM: [46]
3.58 µM: [38]
15.4 µM: [20]
10.8 µM: [24]
8.35 µM: [10]
11 µM: [47]
6.22 µM: [3]
18.1 µM: [13] | [34]
14.3 µM: [7]
13.6 µM: [52]
29.5 µM: [53]
20.3 µM: [1]
18.3 µM: [35]
8.04 µM: [14]
> 100 µM: [6] | [54] | [21]
21.2 µM: [30]
16.6 µM: [28]
13.9 µM: [31]
4 µM: [59]
19.1 µM: [43]
8.77 µM: [39]
8.49 µM: [36]
16.4 µM: [26]
6.15 µM: [58]
15.1 µM: [32]
14.8 µM: [2]
19.3 µM: [44]
18.9 µM: [41]
19.9 µM: [42]
16.2 µM: [25]
15.8 µM: [11]
15 µM: [12] | [49]
17.1 µM: [55]
17.6 µM: [23]
18.7 µM: [15]
38.9 µM: [18]
14 µM: [22] | [27]
13.1 µM: [45]
29.8 µM: [40]
39 µM: [5]
56.8 µM: [29]
13.8 µM: [4] | [51]
13.3 µM: [57]
16.9 µM: [37]
14.2 µM: [9]
